Measurements taken from patent publication US20240319193A1, “CIRCULATING TUMOR CELL DIAGNOSTICS FOR BIOMARKERS PREDICTIVE OF RESISTANCE TO ANDROGEN RECEPTOR (AR) TARGETED THERAPIES” (Epic Sciences, Inc., priority 2014, published 2024).

Test system: progressive mCRPC patients
Assay: Response to AR targeted therapy by baseline CTC AR expression (Epic CTC), Example 1
Type: in vivo, human
Conditions: pooled AA+P or E patients; for patients with high AR who responded: high baseline AR expression on CTCs, N = 7; for patients with low AR who had a PSA decline and stable radiographic disease: low baseline AR expression on CTCs, N = 14, median follow-up 12 wks
Source text: 48 samples from 21 unique progressive mCRPC patients treated with androgen receptor targeted (AR tx) therapies, 9 (43%) on Abiraterone plus Prednisone (AA+P) and 12 (57%) on Enzalutamide (E). Samples were collected and shipped to Epic Sciences, where cells were stained and CTC identified by fluorescent scanners and algorithmic analysis. CTCs, defined as classic (CK+CD45-w/intact DAPI nuclei and distinct), apopotic (CK+, CD45−, non-intact nuclei) and CK− (CK−, CD45-, intact and distinct) were identified. CTCs reported per mL of blood and were examined for AR, PTEN & ERG. CTC data were analyzed in context of PSA, Veridex CTC (reported per 7.5mL of blood), and clinical history.

Molecule: Abiraterone plus Prednisone
- patients with high AR who responded: 0%
- patients with low AR who had a PSA decline and stable radiographic disease: 53%

Molecule: CNC(=O)c1ccc(N2C(=S)N(c3ccc(C#N)c(C(F)(F)F)c3)C(=O)C2(C)C)cc1F [Enzalutamide]
- patients with high AR who responded: 0%
- patients with low AR who had a PSA decline and stable radiographic disease: 53%
